In patent US8846713B2, “Fused heterocyclic compounds as phosphodiesterases (PDEs) inhibitors” (Takeda Pharmaceutical Company Limited, priority 2010, dated 2014):
Structures can show the parent of a compound that is named as a salt.

Assays:
Human PDE10A enzyme = biological target: T1, Human PDE10A enzyme (Homo sapiens, UniProt Q9Y233); assay: PDE enzyme inhibition, SPA (Scintillation Proximity Assay) with [3H]cGMP; type: biochemical; details: [3H]cGMP substrate; for inhibition at 1 µM: compound 1 μM, read-out: Percent inhibition (1 μM); for inhibition at 10 µM: compound 10 μM, read-out: Percent inhibition (10 μM); for inhibition at 0.1 µM: compound 0.1 μM, read-out: Percent inhibition (0.1 μM)
T1 construct: transfected with the full-length gene; His-tag; made in house; host or cells: Sf9 or COS-7 cells
T1 sequence (Q9Y233 267-1055): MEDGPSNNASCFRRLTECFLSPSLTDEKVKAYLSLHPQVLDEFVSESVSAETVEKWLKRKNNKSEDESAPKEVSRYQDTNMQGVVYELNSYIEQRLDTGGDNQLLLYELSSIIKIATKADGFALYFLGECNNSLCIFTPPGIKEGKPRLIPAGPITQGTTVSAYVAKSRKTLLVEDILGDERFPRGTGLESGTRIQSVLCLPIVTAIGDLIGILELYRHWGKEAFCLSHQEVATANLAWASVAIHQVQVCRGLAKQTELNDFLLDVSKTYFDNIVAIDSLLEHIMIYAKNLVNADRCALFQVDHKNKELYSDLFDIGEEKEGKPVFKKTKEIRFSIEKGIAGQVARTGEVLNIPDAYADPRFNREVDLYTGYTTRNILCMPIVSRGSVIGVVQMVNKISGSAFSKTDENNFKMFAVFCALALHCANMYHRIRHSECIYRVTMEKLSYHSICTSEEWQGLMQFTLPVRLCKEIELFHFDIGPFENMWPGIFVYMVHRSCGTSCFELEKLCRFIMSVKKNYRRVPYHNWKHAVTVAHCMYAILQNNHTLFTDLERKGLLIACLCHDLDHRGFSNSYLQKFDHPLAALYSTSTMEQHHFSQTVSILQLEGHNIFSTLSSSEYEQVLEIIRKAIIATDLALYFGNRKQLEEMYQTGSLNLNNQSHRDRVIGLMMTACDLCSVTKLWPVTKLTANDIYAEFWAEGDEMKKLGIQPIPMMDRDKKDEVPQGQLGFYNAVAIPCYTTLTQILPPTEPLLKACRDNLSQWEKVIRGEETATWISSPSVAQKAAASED
Method: Human PDE10A enzyme was generated from Sf9 or COS-7 cells transfected with the full-length gene. Cloned enzyme was extracted from homogenized cell pellets. The extracted enzyme from sf9 cells was partially purified using His-tag affinity column. The enzyme was stored at −70° C. until use. PDE activity was measured using a SPA (Scintillation Proximity Assay) (GE Healthcare). To evaluate the inhibitory activity, 10 μL of serial diluted compounds were incubated with 20 μL of PDE enzyme in assay buffer (50 mM HEPES-NaOH, 8.3 mM MgCl2, 1.7 mM EGTA, 0.1% BSA (pH 7.4)) for 30 min. at room temperature. Final concentration of DMSO in the assay was 1 percent as compounds were tested in duplicate in 96-well half-area plates (Corning). To start the reaction, 10 μL of substrate [^3H] cGMP (25 or 50 nM; enclosed in SPA kits from GE Healthcare or purchased from PerkinElmer, respectively) was added for a final assay volume of 40 μL. After 60 min incubation at room temperature, yttrium SPA beads containing Zinc sulphate were added (20 μL at 6 mg/mL) to terminate the PDE reaction. After being settled for 60 min, assay plates were counted in a scintillation counter (PerkinElmer) to allow calculation of inhibition rate. Inhibition rate was calculated on the basis of 0% control wells with DMSO and 100% control wells without enzyme.

SMILES	melting point [°C]	inhibition at 1 µM (Human PDE10A enzyme) [%]	inhibition at 10 µM (Human PDE10A enzyme) [%]	inhibition at 0.1 µM (Human PDE10A enzyme) [%]
CCn1c(=O)n(-c2ccc(Oc3nc4ccccc4n3C)cc2)c2ncccc21 [Example 19, 1-ethyl-3-{4-[(1-methyl-1H-benzimidazol-2-yl)oxy]phenyl}-1,3-dihydro-2H-imidazo[4,5-b]pyridin-2-one]	184 to 186	–	–	–
Cc1cnc2c(c1)n(C(C)C)c(=O)n2-c1ccc(Oc2nc3cccnc3n2C)cc1 [Example 122, 6-methyl-1-(1-methylethyl)-3-{4-[(3-methyl-3H-imidazo[4,5-b]pyridin-2-yl)oxy]phenyl}-1,3-dihydro-2H-imidazo[4,5-b]pyridin-2-one]	252	109	107	–
CCn1c(=O)n(-c2ccc(Oc3nc4ccccc4n3C)cc2)c2ncc(Cl)cc21 [Example 106, 6-chloro-1-ethyl-3-{4-[(1-methyl-1H-benzimidazol-2-yl)oxy]phenyl}-1,3-dihydro-2H-imidazo[4,5-b]pyridin-2-one]	208 to 210	103	102	–
CCn1c(=O)n(-c2ccc(N3CCn4c3nc3cccnc34)cc2)c2ncccc21 [Example 134, 3-[4-(2,3-dihydro-1H-imidazo[2′,1′:2,3]imidazo[4,5-b]pyridin-1-yl)phenyl]-1-ethyl-1,3-dihydro-2H-imidazo[4,5-b]pyridin-2-one]	255 to 256	101	104	–
CCn1c(=O)n(-c2ccc(-n3ccn4c5ccccc5nc34)cc2)c2ncccc21 [Example 65, 1-Ethyl-3-[4-(1H-imidazo[1,2-a]benzimidazol-1-yl)phenyl]-1,3-dihydro-2H-imidazo[4,5-b]pyridin-2-one]	220 to 221	100	101	–
CCn1c(=O)n(-c2ccc(Oc3nc4cccnc4n3C)cc2)c2ncc(OC)cc21 [Example 119, 1-ethyl-6-methoxy-3-{4-[(3-methyl-3H-imidazo[4,5-b]pyridin-2-yl)oxy]phenyl}-1,3-dihydro-2H-imidazo[4,5-b]pyridin-2-one]	197 to 198	99	103	–
CCn1c(=O)n(-c2ccc(Oc3nc4cccnc4n3C)cc2)c2ncc(C)cc21 [Example 118, 1-ethyl-6-methyl-3-{4-[(3-methyl-3H-imidazo[4,5-b]pyridin-2-yl)oxy]phenyl}-1,3-dihydro-2H-imidazo[4,5-b]pyridin-2-one]	217 to 219	102	104	–
CCn1c(=O)n(-c2ccc(Oc3nc4cccnc4n3C)cc2)c2ncc(OC(F)F)cc21 [Example 127, 6-(difluoromethoxy)-1-ethyl-3-{4-[(3-methyl-3H-imidazo[4,5-b]pyridin-2-yl)oxy]phenyl}-1,3-dihydro-2H-imidazo[4,5-b]pyridin-2-one]	195 to 197	101	101	–
Cn1c(Oc2ccc(-n3c(=O)n(C4CC4)c4cccnc43)cc2)nc2ccccc21 [Example 103, 1-cyclopropyl-3-{4-[(1-methyl-1H-benzimidazol-2-yl)oxy]phenyl}-1,3-dihydro-2H-imidazo[4,5-b]pyridin-2-one]	–	101	103	–
CCn1c(=O)n(-c2ccc(Oc3nc4cccnc4n3C)cc2)c2ncc(C#N)cc21 [Example 108, 1-ethyl-3-{4-[(3-methyl-3H-imidazo[4,5-b]pyridin-2-yl)oxy]phenyl}-2-oxo-2,3-dihydro-1H-imidazo[4,5-b]pyridine-6-carbonitrile]	–	100	102	–
CCn1c(=O)n(-c2ccc(Oc3cn4ccccc4n3)cc2)c2ncc(C)cc21 [Example 124, 1-ethyl-3-[4-(imidazo[1,2-a]pyridin-2-yloxy)phenyl]-6-methyl-1,3-dihydro-2H-imidazo[4,5-b]pyridin-2-one]	–	99	99	–
CCn1c(=O)n(-c2ccc(Oc3nc4cccnc4n3C)cc2)c2ncccc21 [Example 86, 1-ethyl-3-{4-[(3-methyl-3H-imidazo[4,5-b]pyridin-2-yl)oxy]phenyl}-1,3-dihydro-2H-imidazo[4,5-b]pyridin-2-one]	–	97	98	–
CC(C)n1c(=O)n(-c2ccc3c(c2)CCN3c2nc3cccnc3[nH]2)c2ncccc21 [Example 72, 3-[1-(3H-imidazo[4,5-b]pyridin-2-yl)-2,3-dihydro-1H-indol-5-yl]-1-(1-methylethyl)-1,3-dihydro-2H-imidazo[4,5-b]pyridin-2-one]	–	104	110	–
CCn1c(=O)n(-c2ccc(N3CCn4c3nc3ccccc34)cc2)c2ncccc21 [Example 24, 3-[4-(2,3-dihydro-1H-imidazo[1,2-a]benzimidazol-1-yl)phenyl]-1-ethyl-1,3-dihydro-2H-imidazo[4,5-b]pyridin-2-one]	–	–	–	98
CC(C)n1c(=O)n(-c2ccc(Oc3nc4cccnc4n3C)cc2)c2ncccc21 [Example 98, 1-(1-methylethyl)-3-{4-[(3-methyl-3H-imidazo[4,5-b]pyridin-2-yl)oxy]phenyl}-1,3-dihydro-2H-imidazo[4,5-b]pyridin-2-one]	–	99	101	–
CCn1c(=O)n(-c2ccc(Oc3nc4ncccc4n3C)cc2)c2ncccc21 [Example 85, 1-ethyl-3-{4-[(1-methyl-1H-imidazo[4,5-b]pyridin-2-yl)oxy]phenyl}-1,3-dihydro-2H-imidazo[4,5-b]pyridin-2-one]	–	95	99	–
CCn1c(=O)n(-c2ccc(Oc3nc4c(n3C)CCCC4)cc2)c2ncccc21 [Example 112, 1-ethyl-3-{4-[(1-methyl-4,5,6,7-tetrahydro-1H-benzimidazol-2-yl)oxy]phenyl}-1,3-dihydro-2H-imidazo[4,5-b]pyridin-2-one]	–	99	98	–
CCn1c(=O)n(-c2ccc(Oc3nc4ccccc4n3C)cc2)c2ncc(F)cc21 [Example 132, 1-ethyl-6-fluoro-3-{4-[(1-methyl-1H-benzimidazol-2-yl)oxy]phenyl}-1,3-dihydro-2H-imidazo[4,5-b]pyridin-2-one]	–	104	107	–
CCn1c(=O)n(-c2ccc(Nc3nc4ccc(F)cc4o3)cc2)c2ncccc21 [Example 27, 1-ethyl-3-{4-[(6-fluoro-1,3-benzoxazol-2-yl)amino]phenyl)-1,3-dihydro-2H-imidazo[4,5-b]pyridin-2-one]	–	–	–	102
Cn1c(Oc2ccc(-n3c(=O)n(C4CC4)c4cccnc43)cc2)nc2cccnc21 [Example 99, 1-cyclopropyl-3-{4-[(3-methyl-3H-imidazo[4,5-b]pyridin-2-yl)oxy]phenyl}-1,3-dihydro-2H-imidazo[4,5-b]pyridin-2-one]	–	100	105	–
O=c1[nH]c2cccnc2n1-c1ccc(N2CCn3c2nc2ccccc23)cc1 [Example 2, 3-[4-(2,3-dihydro-1H-imidazo[1,2-a]benzimidazol-1-yl)phenyl]-1,3-dihydro-2H-imidazo[4,5-b]pyridin-2-one]	–	104	103	–
CCn1c(=O)n(-c2ccc(Oc3nc4cccnc4n3C)cc2)c2nccc(C)c21 [Example 120, 1-ethyl-7-methyl-3-{4-[(3-methyl-3H-imidazo[4,5-b]pyridin-2-yl)oxy]phenyl}-1,3-dihydro-2H-imidazo[4,5-b]pyridin-2-one]	–	109	106	–
CCn1c(=O)n(-c2ccc(Oc3cn4ccccc4n3)cc2)c2ncccc21 [Example 31, 1-ethyl-3-[4-(imidazo[1,2-a]pyridin-2-yloxy)phenyl]-1,3-dihydro-2H-imidazo[4,5-b]pyridin-2-one]	–	99	98	–
CC1(C)C(=O)N(c2ccc(Oc3nc4ccccc4[nH]3)cc2)c2ncccc21 [Example 9, 1-[4-(1H-benzimidazol-2-yloxy)phenyl]-3,3-dimethyl-1,3-dihydro-2H-pyrrolo[2,3-b]pyridin-2-one dihydrochloride]	–	99	99	–
CCn1c(=O)n(-c2ccc(Oc3nc4cccnc4n3C)cc2)c2nccc(COC(C)=O)c21 [Example 137, (1-ethyl-3-{4-[(3-methyl-3H-imidazo[4,5-b]pyridin-2-yl)oxy]phenyl}-2-oxo-2,3-dihydro-1H-imidazo[4,5-b]pyridin-7-yl)methyl acetate]	–	88	98	–
CCn1c(=O)n(-c2ccc(Oc3nc4ccccc4n3CC(C)(C)O)cc2)c2ncccc21 [Example 40, 1-ethyl-3-(4-{[1-(2-hydroxy-2-methylpropyl)-1H-benzimidazol-2-yl]oxy}phenyl)-1,3-dihydro-2H-imidazo[4,5-b]pyridin-2-one]	–	99	101	–
